According to patent publication US20080139552A1, “INDOLES” (priority 2006, published 2008):

Target: T1, human V1a receptor (Homo sapiens, UniProt P37288)
T1 construct: expressed in transfected cells; host or cells: HEK293 cells, transiently transfected; cell membranes
Assay: human V1a receptor binding (3H-Vasopressin SPA, HEK293 cell membranes)
Conditions: membranes from HEK293 cells transiently transfected with human V1a receptor, Ki by Cheng-Prussoff, read-out: pki (hV1a) (converted)
Protocol: The human V1a receptor was cloned by RT-PCR from total human liver RNA. The coding sequence was subcloned in an expression vector after sequencing to confirm the identity of the amplified sequence. […] Cell membranes were prepared from HEK293 cells transiently transfected with the expression vector and grown in 20 liter fermenters with the following protocol.
50 g of cells were resuspended in 30 ml freshly prepared ice cold Lysis buffer (50 mM HEPES, 1 mM EDTA, 10 mM MgCl2 adjusted to pH=7.4+complete cocktail of protease inhibitor (Roche Diagnostics)), homogenized with Polytron for 1 min, and sonicated on ice for 2×2 minutes at 80% intensity (Vibracell sonicator). The preparation was centrifuged 20 min at 500 g at 4° C., the pellet was discarded and the supernatant centrifuged 1 hour at 43,000 g at 4° C. (19,000 rpm). The pellet was resuspended in 12.5 ml Lysis buffer+12.5ml Sucrose 20% and homogenized using a Polytron for 1-2 min. The protein concentration was determined by the Bradford method and aliquots were stored at −80° C. until use. For binding studies 60 mg Yttrium silicate SPA beads (Amersham) were mixed with an aliquot of membrane in binding buffer (50 mM Tris, 120 mM NaCl, 5 mM KCl, 2 mM CaCl2, 10 mM MgCl2) for 15 minutes with mixing. 50 ul of bead/membrane mixture was then added to each well of a 96 well plate, followed by 50 ul of 4 nM 3H-Vasopressin (American Radiolabeled Chemicals). For total binding measurement 100 ul of binding buffer were added to the respective wells, for non-specific binding 100 ul of 8.4 mM cold vasopressin were added, and for compound testing 100 ul of a serial dilution of each compound in 2% DMSO were added. The plate was incubated 1 h at room temperature, centrifuged 1 min at 1000 g and counted on a Packard Top-Count. Non-specific binding counts were subtracted from each well and data was normalized to the maximum specific binding set at 100%. To calculate an IC 50 the curve was fitted using a non-linear regression model (XLfit) and the Ki was calculated using the Cheng-Prussoff equation.

T1 sequence (P37288 whole entry): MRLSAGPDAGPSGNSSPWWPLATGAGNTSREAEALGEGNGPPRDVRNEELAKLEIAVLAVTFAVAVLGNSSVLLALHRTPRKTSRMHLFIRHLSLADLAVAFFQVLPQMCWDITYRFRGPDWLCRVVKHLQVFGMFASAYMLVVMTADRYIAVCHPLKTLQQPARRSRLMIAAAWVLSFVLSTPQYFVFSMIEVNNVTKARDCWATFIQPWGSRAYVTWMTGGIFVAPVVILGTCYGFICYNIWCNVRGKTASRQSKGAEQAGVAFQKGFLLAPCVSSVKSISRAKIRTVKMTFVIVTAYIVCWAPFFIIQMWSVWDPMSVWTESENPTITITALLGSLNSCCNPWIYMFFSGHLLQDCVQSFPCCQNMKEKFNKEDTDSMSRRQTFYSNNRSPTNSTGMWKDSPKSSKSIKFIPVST

| Ki [nM] | Structure (SMILES) |
| --- | --- |
| 12.9 | N#CCc1cc(Cl)cc2cc(C(=O)N3CCC(c4cccc5[nH]c(=O)oc45)CC3)[nH]c12 [Example 1, {5-Chloro-2-[4-(2-oxo-2,3-dihydro-benzooxazol-7-yl)-piperidine-1-carbonyl]-1H-indol-7-yl}-acetonitrile] |
| 6.53 | O=C(c1cc2cc(Cl)cc(CN3CCOCC3)c2[nH]1)N1CCC(c2cccc3[nH]c(=O)oc23)CC1 [Example 2, 7-[1-(5-Chloro-7-morpholin-4-ylmethyl-1H-indole-2-carbonyl)-piperidin-4-yl]-3H-benzooxazol-2-one] |
| 40.7 | COc1cccc(OC)c1C1CCN(C(=O)c2cc3cc(Cl)ccc3[nH]2)CC1 [Example 5, (5-Chloro-1H-indol-2-yl)-[4-(2,6-dimethoxy-phenyl)-piperidin-1-yl]-methanone] |
| 50.1 | COc1cccc(OC)c1C1CCN(C(=O)c2cc3cc(Cl)ccc3n2CC(=O)N(C)C)CC1 [Example 6, 2-{5-Chloro-2-[4-(2,6-dimethoxy-phenyl)-piperidine-1-carbonyl]-indol-1-yl}-N,N-dimethyl-acetamide] |
| 14 | COc1cccc(OC)c1C1CCN(C(=O)c2cc3cc(Cl)ccc3n2CC#N)CC1 [Example 7, {5-Chloro-2-[4-(2,6-dimethoxy-phenyl)-piperidine-1-carbonyl]-indol-1-yl}-acetonitrile] |
| 86.1 | COc1cccc(OC)c1C1CCN(C(=O)c2cc3cccc(CC#N)c3[nH]2)CC1 [Example 8, {2-[4-(2,6-Dimethoxy-phenyl)-piperidine-1-carbonyl]-1H-indol-7-yl}-acetonitrile] |
| 19.5 | COc1cccc(OC)c1C1CCN(C(=O)c2cc3cc(Cl)cc(CC#N)c3[nH]2)CC1 [Example 9, {5-Chloro-2-[4-(2,6-dimethoxy-phenyl)-piperidine-1-carbonyl]-1H-indol-7-yl}-acetonitrile] |
| 45.7 | COc1ccccc1C1CCN(C(=O)c2cc3cc(Cl)cc(CC#N)c3[nH]2)CC1 [Example 10, {5-Chloro-2-[4-(2-methoxy-phenyl)-piperidine-1-carbonyl]-1H-indol-7-yl}-acetonitrile] |
| 54.3 | COc1ccccc1C1CCN(C(=O)c2cc3cc(Cl)cc(CN4CCOCC4)c3[nH]2)CC1 [Example 11, (5-Chloro-7-morpholin-4-ylmethyl-1H-indol-2-yl)-[4-(2-methoxy-phenyl)-piperidin-1-yl]-methanone] |
| 96.6 | Cc1c(C(=O)N2CC=C(c3ccccc3)CC2)[nH]c2c(C)cccc12 [Example 12, (3,7-Dimethyl-1H-indol-2-yl)-(4-phenyl-3,6-dihydro-2H-pyridin-1-yl)-methanone] |
